Measurements taken from patent US12473304B2, “Heterocyclic PAD4 inhibitors” (BRISTOL-MYERS SQUIBB COMPANY, priority 2020, dated 2025).
pIC50: −log10 of the molar value.

Target: human PAD4 (hPAD4) (Homo sapiens (Human), UniProt Q9UM07)
Test: RFMS Human PAD4 Functional Assay 1
Format: biochemical
Conditions: RFMS assay 1; 5 nM hPAD4, 250 μM BAEE substrate, 50 μM calcium, 37° C.
Procedure, shortened: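 Citrullination product read by RapidFire triple-quad MRM against a modified-citrulline internal standard, after TCA stop and 30 min phenyl glyoxal step at 37 °C. Reaction: 250 μM BAEE, 5 nM human PAD4, 90 min at 37 °C, pH 7.5 HEPES buffer with 50 μM calcium and 5 μM TPEN, following 30 min compound–enzyme preincubation (max 50 μM).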

Chain of human PAD4 (hPAD4) (Q9UM07 whole entry): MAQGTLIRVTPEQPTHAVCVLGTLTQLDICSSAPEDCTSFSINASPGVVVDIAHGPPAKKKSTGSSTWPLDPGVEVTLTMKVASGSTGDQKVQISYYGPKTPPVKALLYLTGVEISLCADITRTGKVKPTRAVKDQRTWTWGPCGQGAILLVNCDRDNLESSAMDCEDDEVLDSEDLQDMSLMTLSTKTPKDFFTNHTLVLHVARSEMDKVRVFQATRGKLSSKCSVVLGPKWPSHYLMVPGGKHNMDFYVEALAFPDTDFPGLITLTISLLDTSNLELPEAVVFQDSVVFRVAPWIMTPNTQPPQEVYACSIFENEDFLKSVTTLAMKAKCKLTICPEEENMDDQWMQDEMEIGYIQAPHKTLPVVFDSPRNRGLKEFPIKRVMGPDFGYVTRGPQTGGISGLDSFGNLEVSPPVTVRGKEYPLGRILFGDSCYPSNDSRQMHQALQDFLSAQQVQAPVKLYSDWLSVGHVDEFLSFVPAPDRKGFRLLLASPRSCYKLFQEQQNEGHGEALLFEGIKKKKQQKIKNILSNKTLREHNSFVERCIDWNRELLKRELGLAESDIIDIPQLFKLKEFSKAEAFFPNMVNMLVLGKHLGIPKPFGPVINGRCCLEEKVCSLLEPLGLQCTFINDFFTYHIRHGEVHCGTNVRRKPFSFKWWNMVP

Structure (SMILES) | pIC50
Cc1c(-c2cc3cccc(C4CCN(C(=O)CCO)CC4)c3n2CC2CC2)nn2cc(C(=O)N3C[C@H](N)C[C@@H](F)C3)ccc12 [Example 430, 1-(4-(2-(6-((3R,5R)-3-amino-5-fluoropiperidine-1-carbonyl)-3-methylpyrazolo[1,5-a]pyridin-2-yl)-1-(cyclopropylmethyl)-1H-indol-7-yl)piperidin-1-yl)-3-hydroxypropan-1-one] | 7.10
Cc1c(-c2cc3cccc(C4CCN(C(=O)COC(C)C)CC4)c3n2CC2CC2)nn2cc(C(=O)N3C[C@H](N)C[C@@H](F)C3)ccc12 [Example 431, 1-(4-(2-(6-((3R,5R)-3-amino-5-fluoropiperidine-1-carbonyl)-3-methylpyrazolo[1,5-a]pyridin-2-yl)-1-(cyclopropylmethyl)-1H-indol-7-yl)piperidin-1-yl)-2-isopropoxyethan-1-one] | 6.89
Cc1c(-c2cc3cccc(C4CCN(C(=O)COC(C)C)CC4)c3n2CC2CC2)nn2cc(C(=O)N3CCC[C@@H](N)C3)ccc12 [Example 432, (R)-1-(4-(2-(6-(3-aminopiperidine-1-carbonyl)-3-methylpyrazolo[1,5-a]pyridin-2-yl)-1-(cyclopropylmethyl)-1H-indol-7-yl)piperidin-1-yl)-2-isopropoxyethan-1-one] | 6.70
Cc1c(-c2cc3cccc(C4CCN(C(=O)C(C)(C)CO)CC4)c3n2CC2CC2)nn2cc(C(=O)N3C[C@H](N)C[C@@H](F)C3)ccc12 [Example 433, 1-(4-(2-(6-((3R,5R)-3-amino-5-fluoropiperidine-1-carbonyl)-3-methylpyrazolo[1,5-a]pyridin-2-yl)-1-(cyclopropylmethyl)-1H-indol-7-yl)piperidin-1-yl)-3-hydroxy-2,2-dimethylpropan-1-one] | 6.85
Cc1c(-c2cc3cccc(C4CCN(C(=O)C(C)(C)CO)CC4)c3n2CC2CC2)nn2cc(C(=O)N3CCC[C@@H](N)C3)ccc12 [Example 434, (R)-1-(4-(2-(6-(3-aminopiperidine-1-carbonyl)-3-methylpyrazolo[1,5-a]pyridin-2-yl)-1-(cyclopropylmethyl)-1H-indol-7-yl)piperidin-1-yl)-3-hydroxy-2,2-dimethylpropan-1-one] | 6.60
Cc1c(-c2cc3cccc(C4CCN(C(=O)C(C)(C)O)CC4)c3n2CC2CC2)nn2cc(C(=O)N3C[C@H](N)C[C@@H](F)C3)ccc12 [Example 435, 1-(4-(2-(6-((3R,5R)-3-amino-5-fluoropiperidine-1-carbonyl)-3-methylpyrazolo[1,5-a]pyridin-2-yl)-1-(cyclopropylmethyl)-1H-indol-7-yl)piperidin-1-yl)-2-hydroxy-2-methylpropan-1-one] | 6.42
Cc1c(-c2cc3cccc(C4CCN(C(=O)C(C)(C)O)CC4)c3n2CC2CC2)nn2cc(C(=O)N3CCC[C@@H](N)C3)ccc12 [Example 436, (R)-1-(4-(2-(6-(3-aminopiperidine-1-carbonyl)-3-methylpyrazolo[1,5-a]pyridin-2-yl)-1-(cyclopropylmethyl)-1H-indol-7-yl)piperidin-1-yl)-2-hydroxy-2-methylpropan-1-one] | 6.52
Cc1c(-c2cc3cccc(C4CCN(C(=O)CCO)CC4)c3n2CC2CC2)nn2cc(C(=O)N3CCC[C@@H](N)C3)ccc12 [Example 437, (R)-1-(4-(2-(6-(3-aminopiperidine-1-carbonyl)-3-methylpyrazolo[1,5-a]pyridin-2-yl)-1-(cyclopropylmethyl)-1H-indol-7-yl)piperidin-1-yl)-3-hydroxypropan-1-one] | 6.96
Cc1c(-c2cc3cccc(C4CCN(C(=O)[C@H]5CC[C@H](O)CC5)CC4)c3n2CC2CC2)nn2cc(C(=O)N3CCC[C@@H](N)C3)ccc12 [Example 443, ((R)-3-aminopiperidin-1-yl)(2-(1-(cyclopropylmethyl)-7-(1-((1r,4r)-4-hydroxycyclohexane-1-carbonyl)piperidin-4-yl)-1H-indol-2-yl)-3-methylpyrazolo[1,5-a]pyridin-6-yl)methanone] | 6.89
Cc1c(-c2cc3cccc(C4CCN(C(=O)CC(C)C)CC4)c3n2CC2CC2)nn2cc(C(=O)N3C[C@H](N)C[C@@H](F)C3)ccc12 [Example 445, 1-(4-(2-(6-((3R,5R)-3-amino-5-fluoropiperidine-1-carbonyl)-3-methylpyrazolo[1,5-a]pyridin-2-yl)-1-(cyclopropylmethyl)-1H-indol-7-yl)piperidin-1-yl)-3-methylbutan-1-one] | 6.80
Cc1c(-c2cc3cccc(C4CCN(C(=O)CC(C)C)CC4)c3n2CC2CC2)nn2cc(C(=O)N3CCC[C@@H](N)C3)ccc12 [Example 446, (R)-1-(4-(2-(6-(3-aminopiperidine-1-carbonyl)-3-methylpyrazolo[1,5-a]pyridin-2-yl)-1-(cyclopropylmethyl)-1H-indol-7-yl)piperidin-1-yl)-3-methylbutan-1-one] | 6.89
Cc1c(-c2cc3cccc(C4CCN(C(=O)[C@H]5CCC[C@@H](O)C5)CC4)c3n2CC2CC2)nn2cc(C(=O)N3CCC[C@@H](N)C3)ccc12 [Example 447, ((R)-3-aminopiperidin-1-yl)(2-(1-(cyclopropylmethyl)-7-(1-((1S,3R)-3-hydroxycyclohexane-1-carbonyl)piperidin-4-yl)-1H-indol-2-yl)-3-methylpyrazolo[1,5-a]pyridin-6-yl)methanone] | 6.77
Cc1c(-c2cc3cccc(C4CCN(C(=O)[C@H]5CCC[C@@H](O)C5)CC4)c3n2CC2CC2)nn2cc(C(=O)N3C[C@H](N)C[C@@H](F)C3)ccc12 [Example 448, ((3R,5R)-3-amino-5-fluoropiperidin-1-yl)(2-(1-(cyclopropylmethyl)-7-(1-((1S,3R)-3-hydroxycyclohexane-1-carbonyl)piperidin-4-yl)-1H-indol-2-yl)-3-methylpyrazolo[1,5-a]pyridin-6-yl)methanone] | 7.15

The next molecules have a higher pIC50 than those just listed; values first:

pIC50 | Structure (SMILES)
7.70 | CC(=O)N1CCC(c2cccc3cc(-c4nn5cc(C(=O)N6C[C@H](N)C[C@@H](F)C6)cc(F)c5c4C)n(CC4CC4)c23)CC1 [Example 427, 1-(4-(2-(6-((3R,5R)-3-Amino-5-fluoropiperidine-1-carbonyl)-4-fluoro-3-methylpyrazolo[1,5-a]pyridin-2-yl)-1-(cyclopropylmethyl)-1H-indol-7-yl)piperidin-1-yl)ethan-1-one]
7.52 | COCC(=O)N1CCC(c2cccc3cc(-c4nn5cc(C(=O)N6C[C@H](N)C[C@@H](F)C6)cc(F)c5c4C)n(CC4CC4)c23)CC1 [Example 428, 1-(4-(2-(6-((3R,5R)-3-Amino-5-fluoropiperidine-1-carbonyl)-4-fluoro-3-methylpyrazolo[1,5-a]pyridin-2-yl)-1-(cyclopropylmethyl)-1H-indol-7-yl)piperidin-1-yl)-2-methoxyethan-1-one]
7.40 | COCC(=O)N1CCC(c2cccc3cc(-c4nn5cc(C(=O)N6CCC[C@@H](N)C6)cc(F)c5c4C)n(CC4CC4)c23)CC1 [Example 429, (R)-1-(4-(2-(6-(3-Aminopiperidine-1-carbonyl)-4-fluoro-3-methylpyrazolo[1,5-a]pyridin-2-yl)-1-(cyclopropylmethyl)-1H-indol-7-yl)piperidin-1-yl)-2-methoxyethan-1-one]
7.52 | Cc1c(-c2cc3cccc(C4CCN(C(=O)CO)CC4)c3n2CC2CC2)nn2cc(C(=O)N3C[C@H](N)C[C@@H](F)C3)ccc12 [Example 438, 1-(4-(2-(6-((3R,5R)-3-amino-5-fluoropiperidine-1-carbonyl)-3-methylpyrazolo[1,5-a]pyridin-2-yl)-1-(cyclopropylmethyl)-1H-indol-7-yl)piperidin-1-yl)-2-hydroxyethan-1-one]
7.52 | Cc1c(-c2cc3cccc(C4CCN(C(=O)CO)CC4)c3n2CC2CC2)nn2cc(C(=O)N3CCC[C@@H](N)C3)ccc12 [Example 439, (R)-1-(4-(2-(6-(3-aminopiperidine-1-carbonyl)-3-methylpyrazolo[1,5-a]pyridin-2-yl)-1-(cyclopropylmethyl)-1H-indol-7-yl)piperidin-1-yl)-2-hydroxyethan-1-one]
7.22 | Cc1c(-c2cc3cccc(C4CCN(C(=O)[C@@H]5CCC[C@H](O)C5)CC4)c3n2CC2CC2)nn2cc(C(=O)N3CCC[C@@H](N)C3)ccc12 [Example 440, ((R)-3-aminopiperidin-1-yl)(2-(1-(cyclopropylmethyl)-7-(1-((1R,3S)-3-hydroxycyclohexane-1-carbonyl)piperidin-4-yl)-1H-indol-2-yl)-3-methylpyrazolo[1,5-a]pyridin-6-yl)methanone]
7.22 | CCOCC(=O)N1CCC(c2cccc3cc(-c4nn5cc(C(=O)N6CCC[C@@H](N)C6)ccc5c4C)n(CC4CC4)c23)CC1 [Example 441, (R)-1-(4-(2-(6-(3-aminopiperidine-1-carbonyl)-3-methylpyrazolo[1,5-a]pyridin-2-yl)-1-(cyclopropylmethyl)-1H-indol-7-yl)piperidin-1-yl)-2-ethoxyethan-1-one]
7.52 | CCOCC(=O)N1CCC(c2cccc3cc(-c4nn5cc(C(=O)N6C[C@H](N)C[C@@H](F)C6)ccc5c4C)n(CC4CC4)c23)CC1 [Example 442, 1-(4-(2-(6-((3R,5R)-3-amino-5-fluoropiperidine-1-carbonyl)-3-methylpyrazolo[1,5-a]pyridin-2-yl)-1-(cyclopropylmethyl)-1H-indol-7-yl)piperidin-1-yl)-2-ethoxyethan-1-one]
8.00 | Cc1c(-c2cc3cccc(C4CCN(C(=O)[C@H]5CC[C@@H](O)CC5)CC4)c3n2CC2CC2)nn2cc(C(=O)N3C[C@H](N)C[C@@H](F)C3)ccc12 [Example 444, ((3R,5R)-3-amino-5-fluoropiperidin-1-yl)(2-(1-(cyclopropylmethyl)-7-(1-((1s,4s)-4-hydroxycyclohexane-1-carbonyl)piperidin-4-yl)-1H-indol-2-yl)-3-methylpyrazolo[1,5-a]pyridin-6-yl)methanone]
